Broadly, the CC50 is the concentration at which the toxic effect on the cells reaches its halfway point.

Data set [1] relates to SARS-CoV Frankfurt-1 strain. It counts as cell-based.
Data set [2] concerns SARS-CoV Frankfurt-1 strain. It counts as cell-based. This is another data set of the same source.
Data set [3] relates to SARS-CoV Frankfurt-1 strain. Particulars: cited from earlier work.
Another data set concerns Vero E6 cells. Particulars: cited from earlier work.
The test system of data set [4] is SARS-CoV Frankfurt-1 strain. As to conditions: cited from earlier work. The source holds these as a separate data set.

`OC[C@H]1O[C@@H](n2cnc3c(Cl)ncnc32)[C@H](O)[C@@H]1O` [Compound 1]: in data set [1], the “concentration required to reduce the virus yield to one-hundredth of the control” value is listed as “approximately 20 μM”.

For `OC[C@H]1O[C@@H](n2cnc3c(Cl)ncnc32)C[C@@H]1O` [Compound 6], in data set [2], the “anti-SARS-CoV activity (in words)” value is “weak antiviral activity”.

Regarding `OC[C@@H]1C[C@@H](O)[C@H](n2cnc3c(Cl)ncnc32)O1` [Compound 7], the “anti-SARS-CoV activity (in words)” value in data set [2] was “weak antiviral activity”.

Regarding `OCC1CC(n2cnc3c(Cl)ncnc32)C1CO` (stereo not shown) [Compound 10], the “anti-SARS-CoV activity (in words)” value in data set [2] was “almost no activity”.

Turning to `NC(=O)c1ncn([C@@H]2O[C@H](CO)[C@@H](O)[C@H]2O)c1O` [Mizoribine], in data set [3], the “concentration required to decrease the virus yield to one-tenth of the control” value is on record as “approximately 35 μM”. For the same compound, the cytotoxic concentration (CC50) in the data set with Vero E6 cells was above 700 µM. Also, the “Antiviral index (50% toxic dose divided by 50% inhibitory dose)” value in data set [4] is listed as above 52.

As to `NC(=O)c1ncn([C@@H]2O[C@H](CO)[C@@H](O)[C@H]2O)n1` [Ribavirin], the “concentration required to decrease the virus yield to one-tenth of the control” value in data set [3] was around 200 µM. In the data set with Vero E6 cells, the CC50 is above 850 µM. In addition, in data set [4], the “Antiviral index (50% toxic dose divided by 50% inhibitory dose)” value is given as above 10.
